# Data reported in publication doi:10.1101/2023.02.27.530254, “Large library docking for cannabinoid-1 receptor agonists with reduced side effects” (bioRxiv, 2024).
# pEC50: −log10 of the molar value.
# Columns and labels:
# hCB1 [1] = molecular target: T1, hCB1 (Homo sapiens, UniProt P21554); test: Tango β-arrestin-2 recruitment assay, HTLA cells; assay type: cell-based; set-up: expressed in transfected cells; conditions: for Emax: HTLA, read-out: hCB1 Tango ß-arrestin recruitment Emax [95% CI]
# T1 sequence (P21554 whole entry): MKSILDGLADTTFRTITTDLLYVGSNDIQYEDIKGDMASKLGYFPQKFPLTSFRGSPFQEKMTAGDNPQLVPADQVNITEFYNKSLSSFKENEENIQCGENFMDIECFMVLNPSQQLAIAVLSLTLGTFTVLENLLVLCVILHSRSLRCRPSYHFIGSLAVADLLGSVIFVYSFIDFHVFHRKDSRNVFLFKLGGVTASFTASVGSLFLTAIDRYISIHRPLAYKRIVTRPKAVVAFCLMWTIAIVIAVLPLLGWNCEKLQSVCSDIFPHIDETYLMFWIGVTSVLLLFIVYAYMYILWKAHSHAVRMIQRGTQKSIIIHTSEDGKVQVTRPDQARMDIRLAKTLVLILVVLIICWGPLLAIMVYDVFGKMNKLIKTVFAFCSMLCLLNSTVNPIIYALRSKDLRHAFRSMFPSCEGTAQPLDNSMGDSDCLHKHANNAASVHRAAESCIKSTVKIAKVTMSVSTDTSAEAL
# Procedure: The Tango β-arrestin-2 recruitment assays were performed as described. In brief, HTLA cells were transiently transfected with human CB1R or CB2R Tango DNA construct overnight in DMEM supplemented with 10 % FBS, 100 μg ml−1 streptomycin and 100 U ml−1 penicillin. The transfected cells were then plated into poly-L-lysine-coated 384-well white clear-bottom cell culture plates in DMEM containing 1% dialysed FBS at a density of 10,000–15,000 cells per well. After incubation for 6 h, the plates were added with drug solutions prepared in DMEM containing 1% dialysed FBS for overnight incubation. On the day of assay, medium and drug solutions were removed and 20 μl per well of BrightGlo reagent (Promega) was added. The plates were further incubated for 20 min at room temperature and counted using the Wallac TriLux Microbeta counter (PerkinElmer). The results were analysed using GraphPad Prism 9.1. Each experiment was performed in triplicate and functional […] values were determined from the mean of three independent experiments.
# hCB2 [2] = molecular target: T2, hCB2 (Homo sapiens, UniProt P34972); test: bioSens-All ebBRET effector biosensor signaling profiling, HEK293; assay type: cell-based; set-up: host or cells: HEK293 (HEK293SL clone), transient; conditions: for RE, relative efficacy: versus CP-55,940
# T2 sequence (P34972 whole entry): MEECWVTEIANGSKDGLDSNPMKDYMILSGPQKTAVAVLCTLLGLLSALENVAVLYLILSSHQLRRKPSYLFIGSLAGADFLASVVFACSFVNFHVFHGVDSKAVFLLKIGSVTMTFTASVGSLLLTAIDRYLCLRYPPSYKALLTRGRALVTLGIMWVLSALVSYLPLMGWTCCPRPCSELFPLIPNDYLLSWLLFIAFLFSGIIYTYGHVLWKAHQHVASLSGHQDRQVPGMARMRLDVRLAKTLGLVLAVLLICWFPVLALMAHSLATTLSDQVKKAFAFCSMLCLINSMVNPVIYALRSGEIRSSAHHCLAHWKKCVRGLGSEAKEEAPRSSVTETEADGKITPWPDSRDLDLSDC
# hCB1 [3] = molecular target: T1, hCB1; test: as above; assay type: cell-based; set-up: host or cells: HEK293 (HEK293SL clone), transient; conditions: for RE, relative efficacy: versus CP-55,940
# C56BL/6 mice = test: Open field test of hypolocomotion; assay type: in vivo, mouse; conditions: for motor effect versus vehicle at analgesic doses: open field and rotarod tests
# Procedure: Thirty minutes after i.p. injection, mice were placed in the center of a round open-field (2 feet diameter) and their exploratory behavior recorded over the next 15 minutes. Distance traveled was used to represent open field behavior.
# hCB2 [4] = molecular target: T2, hCB2; test: TRUPATH BRET2 GoA dissociation assay, HEK293T; assay type: cell-based; set-up: expressed in transfected cells; host or cells: HEK293T (transient); conditions: HEK-293T, read-out: hCB2 BRET2 + GoA Emax [95% CI]
# Procedure: […]. GoA dissociation BRET2 assays were performed as previously described with minor modifications. In brief, HEK293T cells were co-transfected overnight with human CB2 receptor, GαoA-Rluc, Gβ3, and Gγ9-GFP2 constructs. After 18–24 hours, the transfected cells were seeded into poly-L-lysine-coated 384-well white clear-bottom cell culture plates at a density of 15,000–20,000 cells and incubated with DMEM containing 1% dialyzed FBS, 100 U mL−1 of penicillin and 100 μg ml−1 of streptomycin for another 24 hours. The next day, the medium was aspirated and washed once with 20 μL of assay buffer (1× HBSS, 20 mM HEPES, 0.1% BSA, pH 7.4). Then, 20 μL of drug buffer containing coelenterazine 400a (Nanolight Technology) at 5 μM final concentration was added to each well and incubated for 5 minutes, followed by the addition of 10 μL of 3X designated drug buffer for 5 minutes. Then, 10 μL of 4X final concentrations of ligands were added for 5 minutes. […] BRET ratio was computed as the ratio of the GFP2 emission to RLuc8 emission. […] Each experiment was performed in triplicate and functional IC50 values were determined from the mean of four independent experiments.
# [5] = HEK293, read-out: hCB2 Barr2 + GRK2 Emax [95% CI]
# [6] = HEK293, read-out: hCB2 Gi1 Emax [95% CI]
# [7] = HEK293, read-out: hCB2 Gi2 Emax [95% CI]
# [8] = HEK293, read-out: hCB2 GoB Emax [95% CI]
# [9] = HEK293, read-out: hCB2 Gz Emax [95% CI]
# [10] = HEK293, read-out: hCB1 Barr2 + GRK2 Emax [95% CI]
# [11] = HEK293, read-out: hCB1 G13 Emax [95% CI]
# [12] = HEK293, read-out: hCB1 G15 Emax [95% CI]
# [13] = HEK293, read-out: hCB1 Gi1 Emax [95% CI]
# [14] = HEK293, read-out: hCB1 Gi2 Emax [95% CI]
# [15] = HEK293, read-out: hCB1 GoB Emax [95% CI]
# [16] = HEK293, read-out: hCB1 Gz Emax [95% CI]
# [17] = hCB1 Barr2 + GRK2 pEC50 [95% CI], ßarrestin-2 PM recruitment sensor with GRK2
# [18] = hCB1 G13 EC50 [95% CI], G13 sensor
# [19] = hCB1 G15 pEC50 [95% CI], G15 sensor
# [20] = hCB1 Gi1 EC50 [95% CI], Gi1 sensor
# [21] = hCB1 Gi2 EC50 [95% CI], Gi2 sensor
# [22] = hCB1 GoB EC50 [95% CI], GoB sensor
# [23] = hCB1 GoB pEC50 [95% CI], GoB sensor
# [24] = hCB1 Gz pEC50 [95% CI], Gz sensor
# [25] = hCB1 Gi1 pEC50 [95% CI], Gi1 sensor
structure (smiles),measurement,setting,value
"CCCCCCC(C)(C)c1ccc([C@@H]2C[C@H](O)CC[C@H]2CCCO)c(O)c1 [CP-55,940, reference compound]",Emax,hCB1 [1],100%
same,Emax,hCB2 [2]; [5],100%
same,Emax,hCB2 [2]; [6],100%
same,Emax,hCB2 [2]; [7],100%
same,Emax,hCB2 [2]; [8],100%
same,Emax,"hCB1 [3]; HEK293, read-out: hCB1 Barr2 + GRK2 Emax [95% CI], ßarrestin-2 sensor with GRK2, normalized to CP-55,940",89%
same,Emax,"hCB1 [3]; HEK293, read-out: hCB1 G13 Emax [95% CI], G13 sensor, normalized to CP-55,940",100%
same,Emax,"hCB1 [3]; HEK293, read-out: hCB1 G15 Emax [95% CI], G15 sensor, normalized to CP-55,940",100%
same,Emax,"hCB1 [3]; HEK293, read-out: hCB1 Gi1 Emax [95% CI], Gi1 sensor, normalized to CP-55,940",100%
same,Emax,"hCB1 [3]; HEK293, read-out: hCB1 Gi2 Emax [95% CI], Gi2 sensor, normalized to CP-55,940",100%
same,Emax,"hCB1 [3]; HEK293, read-out: hCB1 GoB Emax [95% CI], GoB sensor, normalized to CP-55,940",100%
same,motor effect versus vehicle at analgesic doses,C56BL/6 mice,caused motor impairment in both the rotarod and open field tests
same,Emax,hCB2 [4],99%
COC(=O)C(C)(NC(=O)c1cc(C)n(-c2cccc(C(F)(F)F)c2)n1)c1cccs1 (stereo not drawn) [‘4042],pEC50,hCB1 [1],7.97
same,Emax,hCB1 [1],102%
same,Emax,hCB2 [2]; [5],33%
same,Emax,hCB2 [2]; [6],82%
same,Emax,hCB2 [2]; [7],70%
same,Emax,hCB2 [2]; [8],61%
same,Emax,hCB2 [2]; [9],56%
same,pEC50,hCB2 [2]; hCB2 Barr2 + GRK2 EC50 [95% CI],8.26
same,"RE, relative efficacy",hCB2 [2]; hCB2 Gi1,0.63
same,pEC50,hCB2 [2]; hCB2 Gi1 EC50 [95% CI],8.57
same,pEC50,hCB2 [2]; hCB2 Gi1 pEC50 [95% CI],8.58
same,"RE, relative efficacy",hCB2 [2]; hCB2 Gi2,0.59
same,pEC50,hCB2 [2]; hCB2 Gi2 pEC50 [95% CI],8.90
same,pEC50,hCB2 [2]; hCB2 GoB pEC50 [95% CI],8.60
same,"RE, relative efficacy",hCB2 [2]; hCB2 GoB,0.47
same,pEC50,hCB2 [2]; hCB2 Gz EC50 [95% CI],8.87
same,"RE, relative efficacy",hCB2 [2]; hCB2 Gz,0.38
same,"RE, relative efficacy",hCB2 [2]; hCB2 ßarr2 + GRK2,0.82
same,Emax,hCB1 [3]; [10],72%
same,Emax,hCB1 [3]; [11],64%
same,Emax,hCB1 [3]; [12],105%
same,Emax,hCB1 [3]; [13],102%
same,Emax,hCB1 [3]; [14],101%
same,Emax,hCB1 [3]; [15],103%
same,Emax,hCB1 [3]; [16],97%
same,pEC50,hCB1 [3]; [17],8.44
same,"RE, relative efficacy",hCB1 [3]; hCB1 G13,0.91
same,pEC50,hCB1 [3]; [18],8.68
same,pEC50,"hCB1 [3]; hCB1 G13 pEC50 [95% CI], G13 sensor",8.69
same,"RE, relative efficacy",hCB1 [3]; hCB1 G15,0.74
same,pEC50,hCB1 [3]; [19],9.43
same,"RE, relative efficacy",hCB1 [3]; hCB1 Gi1,0.97
same,pEC50,hCB1 [3]; [20],9.32
same,"RE, relative efficacy",hCB1 [3]; hCB1 Gi2,1.01
same,pEC50,hCB1 [3]; [21],9.25
same,pEC50,hCB1 [3]; [22],9.19
same,pEC50,hCB1 [3]; [23],9.20
same,"RE, relative efficacy",hCB1 [3]; hCB1 GoB,1.04
same,pEC50,hCB1 [3]; [24],9.37
same,"RE, relative efficacy",hCB1 [3]; hCB1 Gz,0.62
same,"RE, relative efficacy",hCB1 [3]; hCB1 ßarr2 + GRK2,0.81
same,motor effect versus vehicle at analgesic doses,C56BL/6 mice,no significant differences
same,Emax,hCB2 [4],29%
COC(=O)[C@@](C)(NC(=O)c1cc(C)n(-c2cccc(C(F)(F)F)c2)n1)c1cccs1 [‘1350],Emax,hCB2 [2]; [5],30%
same,Emax,hCB2 [2]; [6],74%
same,Emax,hCB2 [2]; [7],61%
same,Emax,hCB2 [2]; [8],59%
same,Emax,hCB2 [2]; [9],52%
same,pEC50,hCB2 [2]; hCB2 Barr2 + GRK2 pEC50 [95% CI],8.38
same,"RE, relative efficacy",hCB2 [2]; hCB2 Gi1,0.29
same,pEC50,hCB2 [2]; hCB2 Gi1 EC50 [95% CI],8.45
same,"RE, relative efficacy",hCB2 [2]; hCB2 Gi2,0.40
same,pEC50,hCB2 [2]; hCB2 Gi2 pEC50 [95% CI],8.79
same,pEC50,hCB2 [2]; hCB2 GoB pEC50 [95% CI],8.58
same,"RE, relative efficacy",hCB2 [2]; hCB2 GoB,0.40
same,pEC50,hCB2 [2]; hCB2 Gz EC50 [95% CI],8.59
same,pEC50,hCB2 [2]; hCB2 Gz pEC50 [95% CI],8.58
same,"RE, relative efficacy",hCB2 [2]; hCB2 Gz,0.22
same,"RE, relative efficacy",hCB2 [2]; hCB2 ßarr2 + GRK2,0.92
same,Emax,hCB1 [3]; [10],63%
same,Emax,hCB1 [3]; [11],56%
same,Emax,hCB1 [3]; [12],99%
same,Emax,hCB1 [3]; [13],92%
same,Emax,hCB1 [3]; [14],95%
same,Emax,hCB1 [3]; [15],98%
same,Emax,hCB1 [3]; [16],94%
same,pEC50,hCB1 [3]; [17],8.66
same,"RE, relative efficacy",hCB1 [3]; hCB1 G13,1.64
same,pEC50,hCB1 [3]; [18],9.08
same,"RE, relative efficacy",hCB1 [3]; hCB1 G15,1.14
same,pEC50,hCB1 [3]; [19],9.66
same,"RE, relative efficacy",hCB1 [3]; hCB1 Gi1,1.98
same,pEC50,hCB1 [3]; [25],9.63
same,"RE, relative efficacy",hCB1 [3]; hCB1 Gi2,1.89
same,pEC50,hCB1 [3]; [21],9.55
same,pEC50,"hCB1 [3]; hCB1 Gi2 pEC50 [95% CI], Gi2 sensor",9.54
same,pEC50,hCB1 [3]; [23],9.54
same,"RE, relative efficacy",hCB1 [3]; hCB1 GoB,2.24
same,pEC50,hCB1 [3]; [24],9.46
same,"RE, relative efficacy",hCB1 [3]; hCB1 Gz,0.77
same,"RE, relative efficacy",hCB1 [3]; hCB1 ßarr2 + GRK2,1.16
same,dose showing locomotor deficits,C56BL/6 mice; open field test,0.2 mg/kg
COC(=O)C(NC(=O)c1cc(C)n(-c2cccc(C(F)(F)F)c2)n1)c1cccs1 (stereo not drawn) [‘60154],pEC50,hCB1 [1],6.10
same,Emax,hCB1 [1],39%
same,Emax,hCB1 [3]; [13],92%
same,Emax,hCB1 [3]; [15],100%
same,Emax,hCB1 [3]; [16],121%
same,pEC50,hCB1 [3]; [20],8.60
same,pEC50,hCB1 [3]; [25],7.60
same,pEC50,hCB1 [3]; [22],7.74
same,pEC50,"hCB1 [3]; hCB1 Gz EC50 [95% CI], Gz sensor",7.76
same,Emax,hCB2 [4],31%
